Series [1] is described as follows: Hydrophobicity by analytical RP-HPLC (%B at peak elution). Type of series: physicochemical. Particulars: chromatographic, percentage of mobile phase B at the peak elution time. An excerpt:
To investigate the effect of attaching fatty acids to a macrocycle, fatty acid tails of different lengths were used. When the carbon chain was elongated, the hydrophobicity of the peptide was increased gradually. Herein, the hydrophobicity is expressed as the percentage of mobile phase B at the peak elution time on an RP-HPLC system.

Series [2] concerns P. aeruginosa ATCC 27853. Here is the method:
The MIC constitutes a limited measure for antimicrobial activity. It indicates whether or not AMPs in different concentrations are able to prevent visible growth of bacteria.
Time-kill experiments were performed on balanced exponentially growing cultures of P. aeruginosa ATCC 27853. We used balanced cultures as described in Oddo et al.. Briefly, overnight cultures were prepared in MHB-II broth at 37 °C with shaking. Overnight cultures were back-diluted and grown exponentially for no less than 8–10 generations before experimentation. When experiments were done, exponentially growing cultures were back-diluted to an OD600 = 0.0005 approximately 5 × 10^5 CFU, into fresh MHB-II heated to 37 °C. Samples (250 μL) were taken at time points 0, 1, 3, 5, and 24 h. Samples were spun down at 8000× g for 5 min and washed in 1 mL of NaCl 0.9% before being spun down again and re-suspended in 250 μL NaCl 0.9%. From this, 10-fold dilution series were prepared and 10 μL samples were spot-plated in triplicate onto LB-agar. From the undiluted sample, 100 μL samples were also plated, i.e., giving a detection limit of 10 CFU/mL.

Where a SMILES comes first, the peptide text is derived from it. [ ]: non-standard residue; d: D form. The star is where a group is joined. 2Nal = N[C@@H](Cc1ccc2ccccc2c1)C(=O)O; Octanoyl = CCCCCCCC(=O)*; Dab = NCC[C@H](N)C(=O)O; AEEA = NCCOCCOCC(=O)O Some results are limits rather than exact numbers.

For the molecule `CCCCCCCC(=O)NCC[C@@H]1NC(=O)[C@H](CCN)NC(=O)[C@H](CCCNC(=N)N)NC(=O)[C@H](Cc2ccc3ccccc3c2)NC(=O)[C@H](CCN)NC(=O)[C@H](CC(N)=O)NC(=O)[C@H](CCN)NC(=O)[C@H](Cc2ccc3ccccc3c2)NC(=O)COCCOCCNC1=O` [(C8)^5] (cyclo([Dab][2Nal]R[Dab][Dab](Octanoyl)[AEEA][2Nal][Dab]N)), the “%B at peak of elution in analytical HPLC (hydrophobicity)” value in series [1] is 69%; in series [1] (listed as (C8)^7) it was 71%. In series [2] (1 × MIC (8 μg/mL), 0–5 h, MHB-II, 37 °C), the “bacterial cell count over the first 5 h” value is recorded as “did not change”. For the same molecule, in series [2] (5 × MIC ((C8)^5 40 μg/mL; colistin 2.5 μg/mL), 1 h, MHB-II, 37 °C, shaking, n = 3), the “log reduction of cell count within first hour of treatment” value was 4.5 log. The “cell count / growth after 24 h” value in series [2] (5 × MIC ((C8)^5 40 μg/mL; colistin 2.5 μg/mL), 24 h, detection limit 10 CFU/mL) is 10^4 CFU/mL. In addition, in series [2] (ATCC 27853, 1 h, 40 μg/mL), the “killing of the bacteria in the original inoculum” value was over 99.9%.

The record behind these values is publication PMC7461568, “Novel Cyclic Lipopeptide Antibiotics: Effects of Acyl Chain Length and Position” (International Journal of Molecular Sciences, 2020).
